The record followed here is patent publication US20250236639A1, “NEUROACTIVE STEROIDS AND COMPOSITIONS THEREOF” (Sage Therapeutics, Inc., priority 2019, published 2025).

The structures appear in SMILES notation. pIC50: −log10 of the molar value.

Usually pIC50 stands for −log10 of the IC50, conventionally taken in molar units.

For the experiment, the target named is GABAA receptor. Nature of the experiment: Steroid inhibition of [35S]-TBPS binding, rat brain cortical membranes. The note with it: 3 nM [35S]-TBPS, in the presence of 5 mM GABA. The procedure, abridged:
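In the presence of […], compounds (DMSO 0.5% final) competed with 3 nM [35S]-TBPS for Sprague-Dawley rat cortical membranes, pH 7.4 phosphate buffer, 90 min, room temperature. Filtration and scintillation counting; specific binding defined by […]; IC50 and maximal inhibition fitted per experiment, averaged as mean ± SEM.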
Take `COC[C@@]1(O)CC[C@H]2[C@H](CC[C@@H]3[C@@H]2CC[C@]2(C)[C@@H](C(C)(C)Cn4cc(C#N)cn4)CC[C@@H]32)C1` [Compound 56, 1-(2-((3R,5R,8R,9R,10S,13S,14S,17S)-3-hydroxy-3-(methoxymethyl)-13-methylhexadecahydro-1H-cyclopenta[a]phenanthren-17-yl)-2-methylpropyl)-1H-pyrazole-4-carbonitrile]: the pIC50 was above 7.00.
Then `C[C@@]1(O)CC[C@H]2[C@H](CC[C@@H]3[C@@H]2CC[C@@]2(C)[C@H]3CC[C@@H]2[C@](C)(C#N)Cn2cc(C#N)cn2)C1` [Compound 57, 1-((S)-2-cyano-2-((3R,5R,8R,9R,10S,13S,14S,17S)-3-hydroxy-3,13-dimethylhexadecahydro-1H-cyclopenta[a]phenanthren-17-yl)propyl)-1H-pyrazole-4-carbonitrile], with above 7.00.
For `COC[C@H]1C[C@H]2[C@H](CC[C@@H]3[C@@H]2CC[C@@]2(C)[C@H]3CC[C@@H]2[C@](C)(O)Cn2cc(C#N)cn2)C[C@]1(C)O` [Compound 58, 1-((S)-2-hydroxy-2-((2R,3S,5R,8R,9R,10S,13S,14S,17S)-3-hydroxy-2-(methoxymethyl)-3,13-dimethylhexadecahydro-1H-cyclopenta[a]phenanthren-17-yl)propyl)-1H-pyrazole-4-carbonitrile] the value was above 7.00.
Then `COC[C@@H]1C[C@H]2[C@H](CC[C@@H]3[C@@H]2CC[C@@]2(C)[C@H]3CC[C@@H]2[C@](C)(O)Cn2cc(C#N)cn2)C[C@]1(C)O` [Compound 58A, 1-((S)-2-hydroxy-2-((2S,3S,5R,8R,9R,10S,13S,14S,17S)-3-hydroxy-2-(methoxymethyl)-3,13-dimethylhexadecahydro-1H-cyclopenta[a]phenanthren-17-yl)propyl)-1H-pyrazole-4-carbonitrile], with above 7.00.
Consider `COC[C@H]1C[C@H]2[C@H](CC[C@@H]3[C@@H]2CC[C@@]2(C)[C@H]3CC[C@@H]2[C@@](C)(O)Cn2cc(C#N)cn2)C[C@]1(C)O` [Compound 59, 1-((R)-2-hydroxy-2-((2R,3S,5R,8R,9R,10S,13S,14S,17S)-3-hydroxy-2-(methoxymethyl)-3,13-dimethylhexadecahydro-1H-cyclopenta[a]phenanthren-17-yl)propyl)-1H-pyrazole-4-carbonitrile], for which the negative-log IC50 (pIC50) is 6.00 to 7.00.
With `COC[C@@H]1C[C@H]2[C@H](CC[C@@H]3[C@@H]2CC[C@@]2(C)[C@H]3CC[C@@H]2[C@@](C)(O)Cn2cc(C#N)cn2)C[C@]1(C)O` [Compound 59A, 1-((R)-2-hydroxy-2-((2S,3S,5R,8R,9R,10S,13S,14S,17S)-3-hydroxy-2-(methoxymethyl)-3,13-dimethylhexadecahydro-1H-cyclopenta[a]phenanthren-17-yl)propyl)-1H-pyrazole-4-carbonitrile], the pIC50 was 6.00 to 7.00.
For `CO[C@@H]1C[C@H]2[C@H](CC[C@@H]3[C@@H]2CC[C@@]2(C)[C@H]3CC[C@@H]2[C@](C)(O)Cn2cc(C#N)cn2)C[C@]1(C)O` [Compound 60, 1-((S)-2-hydroxy-2-((2R,3S,5R,8R,9R,10S,13S,14S,17S)-3-hydroxy-2-methoxy-3,13-dimethylhexadecahydro-1H-cyclopenta[a]phenanthren-17-yl)propyl)-1H-pyrazole-4-carbonitrile] the value was above 7.00.
For `CO[C@@H]1C[C@H]2[C@H](CC[C@@H]3[C@@H]2CC[C@@]2(C)[C@H]3CC[C@@H]2[C@@](C)(O)Cn2cc(C#N)cn2)C[C@]1(C)O` [Compound 61, 1-((R)-2-hydroxy-2-((2R,3S,5R,8R,9R,10S,13S,14S,17S)-3-hydroxy-2-methoxy-3,13-dimethylhexadecahydro-1H-cyclopenta[a]phenanthren-17-yl)propyl)-1H-pyrazole-4-carbonitrile] the value was 6.00 to 7.00.
